Assay results published in ChEMBL document CHEMBL5042493, “Enhancing monoamine oxidase B inhibitory activity via chiral fluorination: Structure-activity relationship, biological evaluation, and molecular docking study” (Eur J Med Chem, 2022).

Experiments:
[1] = Half life in Sprague dawley rat at 5 mg/kg, po measured upto 24 hrs; assay type: ADME, organism-based; conditions: in vivo
[2] = Apparent permeability in MDCK-MDR1 cells from basal to apical side at 10 uM; assay type: ADME, cell-based, Canis lupus familiaris; conditions: dog
[3] = Oral bioavailability in Sprague dawley rat at 5 mg/kg measured upto 24 hrs; assay type: ADME, organism-based; conditions: in vivo
[4] = Metabolic stability in mouse liver microsome assessed as half life at 1 uM measured after 60 min in presence of NADPH by LC-MS/MS analysis; assay type: ADME; conditions: liver microsomes
Homo sapiens = species on record: Homo sapiens; test: Selectivity index, ratio of IC50 for recombinant human MAO-A expressed in Sf9 cells to IC50 for recombinant human MAO-B expressed in Sf9 cells
[5] = Volume of distribution at steady state in Sprague dawley rat at 1 mg/kg, iv measured upto 24 hrs; assay type: ADME, organism-based; conditions: in vivo, read-out: Vdss
Cytochrome P450 3A4 = Cytochrome P450 3A4 (Homo sapiens, UniProt P08684); test: Inhibition of human CYP3A4 preincubated for 10 min followed by addition of NADPH and measured after 5 min by LC-MS/MS analysis; assay type: ADME
hERG (KCNH2) = hERG (KCNH2) (Homo sapiens, UniProt Q12809); test: Inhibition of human ERG expressed in CHO-K1 cells by Patch Clamp method; assay type: toxicity, cell-based; conditions: CHO-K1 cells expressing human ERG
Cytochrome P450 1A2 = target: T1, Cytochrome P450 1A2 (Homo sapiens, UniProt P05177); test: Inhibition of human CYP1A2 preincubated for 10 min followed by addition of NADPH and measured after 10 min by LC-MS/MS analysis; assay type: ADME
T1 sequence (P05177 whole entry): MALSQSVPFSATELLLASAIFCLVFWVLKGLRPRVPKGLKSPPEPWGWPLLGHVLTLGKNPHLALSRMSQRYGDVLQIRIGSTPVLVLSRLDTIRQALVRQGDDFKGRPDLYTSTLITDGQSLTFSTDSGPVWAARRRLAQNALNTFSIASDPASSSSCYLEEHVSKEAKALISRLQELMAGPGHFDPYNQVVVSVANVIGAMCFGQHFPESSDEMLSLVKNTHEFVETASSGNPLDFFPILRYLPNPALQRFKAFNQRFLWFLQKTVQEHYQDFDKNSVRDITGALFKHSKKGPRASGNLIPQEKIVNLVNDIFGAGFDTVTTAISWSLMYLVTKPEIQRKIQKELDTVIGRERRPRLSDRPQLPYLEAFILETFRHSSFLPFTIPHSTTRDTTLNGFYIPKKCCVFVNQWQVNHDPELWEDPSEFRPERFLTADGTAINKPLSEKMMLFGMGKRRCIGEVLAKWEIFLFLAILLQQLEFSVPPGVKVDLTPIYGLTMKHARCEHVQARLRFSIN

[6] = Metabolic stability in rat liver microsome assessed as half life at 1 uM measured after 60 min in presence of NADPH by LC-MS/MS analysis; assay type: ADME; conditions: liver microsomes
[7] = target: 5-hydroxytryptamine receptor 2B (Homo sapiens) (UniProt P41595); test: Binding affinity to 5-HT2B receptor (unknown origin) expressed in CHO-K1 cells; assay type: cell-based; conditions: concentration not given here
[8] = Metabolic stability in dog liver microsome assessed as half life at 1 uM measured after 60 min in presence of NADPH by LC-MS/MS analysis; assay type: ADME, Canis lupus familiaris; conditions: liver microsomes
[9] = Plasma protein binding in monkey assessed as unbound fraction at 1 uM measured after 5 hrs by LC-MS/MS analysis; assay type: ADME, cell-free, Macaca mulatta; conditions: rhesus monkey
[10] = AUC (0-t) in Sprague dawley rat at 1 mg/kg, iv measured upto 24 hrs; assay type: ADME, organism-based; parameters: route intravenous, dose 1 mg/kg, time <=24; conditions: in vivo
[11] = Apparent permeability in MDCK-MDR1 cells from apical to basal side at 10 uM; assay type: ADME, cell-based, Canis lupus familiaris; conditions: dog
[12] = Clearance in Cynomolgus monkey rat at 1 mg/kg, iv measured upto 24 hrs; assay type: ADME, organism-based, Macaca fascicularis; conditions: in vivo
[13] = AUC (0-t) in Sprague dawley rat at 5 mg/kg, po measured upto 24 hrs; assay type: ADME, organism-based; parameters: route oral, dose 5 mg/kg, time <=24; conditions: in vivo
[14] = AUC (0-t) in Cynomolgus monkey rat at 5 mg/kg, po measured upto 24 hrs; assay type: ADME, organism-based, Macaca fascicularis; parameters: route oral, dose 5 mg/kg, time <=24; conditions: in vivo

Cytochrome P450 3A4, sequence (P08684 whole entry): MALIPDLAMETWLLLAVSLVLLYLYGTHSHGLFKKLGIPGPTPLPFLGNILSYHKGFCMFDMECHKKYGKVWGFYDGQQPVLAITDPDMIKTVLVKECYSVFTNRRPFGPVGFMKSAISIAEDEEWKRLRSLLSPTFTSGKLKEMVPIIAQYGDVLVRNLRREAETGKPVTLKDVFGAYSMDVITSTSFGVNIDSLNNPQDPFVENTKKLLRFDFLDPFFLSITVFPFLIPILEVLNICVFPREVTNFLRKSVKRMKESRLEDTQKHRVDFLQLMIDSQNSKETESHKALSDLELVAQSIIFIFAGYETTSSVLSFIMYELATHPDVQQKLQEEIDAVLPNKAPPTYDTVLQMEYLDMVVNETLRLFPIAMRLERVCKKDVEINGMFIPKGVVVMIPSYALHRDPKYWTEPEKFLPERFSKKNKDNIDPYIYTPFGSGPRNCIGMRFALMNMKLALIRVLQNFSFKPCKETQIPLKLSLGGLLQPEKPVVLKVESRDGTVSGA
hERG (KCNH2), sequence (Q12809 whole entry): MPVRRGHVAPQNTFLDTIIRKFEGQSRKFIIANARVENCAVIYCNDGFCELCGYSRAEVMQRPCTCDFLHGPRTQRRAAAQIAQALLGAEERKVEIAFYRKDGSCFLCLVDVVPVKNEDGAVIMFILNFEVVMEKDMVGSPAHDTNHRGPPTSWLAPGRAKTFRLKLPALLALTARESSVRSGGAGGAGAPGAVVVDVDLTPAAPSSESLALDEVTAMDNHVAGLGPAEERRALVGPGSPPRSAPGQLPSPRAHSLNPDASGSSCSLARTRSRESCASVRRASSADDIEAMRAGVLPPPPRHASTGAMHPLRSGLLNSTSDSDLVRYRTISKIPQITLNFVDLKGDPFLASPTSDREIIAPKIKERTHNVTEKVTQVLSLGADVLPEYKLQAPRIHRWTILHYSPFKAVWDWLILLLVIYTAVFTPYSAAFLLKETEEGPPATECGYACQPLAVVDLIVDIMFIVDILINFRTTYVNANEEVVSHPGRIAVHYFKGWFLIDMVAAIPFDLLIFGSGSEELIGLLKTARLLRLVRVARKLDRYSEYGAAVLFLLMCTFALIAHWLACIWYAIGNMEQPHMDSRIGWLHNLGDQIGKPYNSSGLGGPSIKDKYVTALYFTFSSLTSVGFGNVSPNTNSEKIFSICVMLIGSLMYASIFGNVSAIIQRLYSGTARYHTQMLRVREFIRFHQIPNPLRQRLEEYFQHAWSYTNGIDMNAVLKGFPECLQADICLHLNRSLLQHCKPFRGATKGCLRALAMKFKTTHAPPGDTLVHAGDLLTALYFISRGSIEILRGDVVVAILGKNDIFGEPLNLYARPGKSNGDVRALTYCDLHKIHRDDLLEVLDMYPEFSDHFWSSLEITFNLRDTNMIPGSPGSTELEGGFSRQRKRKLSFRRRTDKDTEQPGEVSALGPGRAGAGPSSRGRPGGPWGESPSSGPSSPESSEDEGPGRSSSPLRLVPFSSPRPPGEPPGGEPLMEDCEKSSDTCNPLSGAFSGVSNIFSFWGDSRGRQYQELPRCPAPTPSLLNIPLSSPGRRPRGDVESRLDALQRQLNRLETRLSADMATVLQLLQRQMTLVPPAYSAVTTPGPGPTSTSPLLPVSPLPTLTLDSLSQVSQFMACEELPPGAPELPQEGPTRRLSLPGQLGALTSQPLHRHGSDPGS
5-hydroxytryptamine receptor 2B (Homo sapiens), sequence (P41595 whole entry): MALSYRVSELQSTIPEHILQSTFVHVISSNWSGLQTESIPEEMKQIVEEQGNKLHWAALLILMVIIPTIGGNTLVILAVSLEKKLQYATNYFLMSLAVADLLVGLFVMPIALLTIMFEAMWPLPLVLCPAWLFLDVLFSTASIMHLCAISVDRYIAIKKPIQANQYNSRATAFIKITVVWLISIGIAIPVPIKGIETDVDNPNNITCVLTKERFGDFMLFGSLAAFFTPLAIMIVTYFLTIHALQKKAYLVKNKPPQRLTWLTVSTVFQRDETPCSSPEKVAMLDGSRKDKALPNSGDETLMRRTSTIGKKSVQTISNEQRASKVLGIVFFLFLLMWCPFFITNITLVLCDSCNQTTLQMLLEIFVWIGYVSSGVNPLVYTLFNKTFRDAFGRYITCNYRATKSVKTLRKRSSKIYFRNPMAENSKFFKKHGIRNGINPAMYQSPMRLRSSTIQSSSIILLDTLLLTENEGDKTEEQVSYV

SMILES: NC(=O)[C@@H]1C[C@H](F)CN1Cc1ccc(OCc2cccc(F)c2)cc1
- half-life [1]: 34.2 min
- Papp B→A at 10 µM [2]: 22.8 ×10⁻⁶ cm/s
- bioavailability [3]: 55.2%
- half-life at 1 µM [4]: 9.37 min
- Ratio IC50 (Homo sapiens): 2440
- Vd [5]: 1.37 L/kg
- IC50 (Cytochrome P450 3A4): > 29 µM
- IC50 (hERG (KCNH2)): > 30 µM
- IC50 (Cytochrome P450 1A2): > 29 µM
- half-life at 1 µM [6]: 11.5 min
- inhibition [7]: 57%
- half-life at 1 µM [8]: 51.1 min
- fraction unbound at 5 h, 1 µM [9]: 0.0407
- AUC(0-t) at 24 h [10]: 505 ng·h/mL
- Papp A→B at 10 µM [11]: 28.9 ×10⁻⁶ cm/s
- clearance [12]: 7.54 mL/min/kg
- AUC(0-t) at 24 h [13]: 1400 ng·h/mL
- AUC(0-t) at 24 h [14]: 11300 ng·h/mL
